Read-outs that look alike come from different tables or passages of the source. Residues, ends and D or L forms follow the SMILES beside them. *: point of attachment. Cbz = O=C(OCc1ccccc1)*; CH2F = FC*

Results on four molecules are retold here after US9155761B2, “Method for the treatment of cancer” (UNIVERSITY COLLEGE CORK, NATIONAL UNIVERSITY OF IRELAND, …, priority 2009, dated 2015).

Data set [1] concerns OE21. As to the method:
(§1) Morphological features of cells treated with 5-fluorouracil (5-FU)/cisplatin, without and with 3-MA, LY294002, Bafilomycin, Lithium chloride, rapamycin or HA14-I were examined by light microscopy. Morphologies of treated cells were examined 24 and 48 hours post treatment, treatment times are referred to in figure legends. Aliquots of vehicle control and drug treated cells were cytospun onto glass slides and stained with Rapi-Diff (Braidwood laboratories, UK). The extent of apoptotic and non-apoptotic cell death was determined by counting the cells in at least three fields of view per slide, with an average of ˜100 cells per field. Apoptotic cell death is characterized by the presence of two or more of the following morphological features: cell shrinkage, chromatin condensation, DNA degradation and fragmentation into ‘apoptotic bodies’, within an intact plasma membrane. Autophagic cell death was identified by clear elevation of cytoplasmic vesicles, loss of cytoplasmic material, pyknosis of the nuclear material and an intact nuclear membrane. Cytospin images are representative of at least three independent experiments.

Data set [2] has as its system KYSE450. The data set is described as follows: Evaluation of cell death morphology by light microscopy. Format: cell-based, human. How it is done:
as §1

Data set [3] deals with OE21. The data set is described as follows: MTT viability and recovery assay. Format: cell-based, human. As to the method: (§2) Viability of esophageal cells was assessed using the MTT reduction assay. Cells are seeded at 2×10^4 (OE33/OE19) and 1×10^4 (OE21/KYSE450) cells per cm^2, treated for 48-96 hours and incubated for an additional 60 minutes at 37° C. in 0.5 mg/ml MTT dye. Viable, metabolizing cells reduce MTT dye, producing a dark formazan product, with absorbance read at 562 nm, reference wavelength 620 nm. To assess recovery, at 48 hours post treatment, in replicate plates (identical seeding & treatment times), all drugs were removed, culture medium was replaced, and these cells were cultured for a further 48-96 hours, to monitor their ability to recover and MTT assay was repeated.
(§3) In analysis of MTT data, values are presented as the Mean absorbance+/−Standard Error of the Mean (S.E.M) for four independent experiments. Statistical analysis was performed with paired Student's t-test. Values of p<0.05 were considered statistically significant. Asterisks indicate the level of significance.

Data set [4] deals with KYSE450. Format: cell-based, human. As to the method:
as §2, §3

In data set [5] the test system is LC3 in OE33 cells. Description: LC3 / GFP-LC3 processing and distribution (Western blot, fluorescence microscopy). In kind it is cell-based, human. Particulars: 10 nM, 24 and 48 hours post treatment. How it is done:
(§4) Total cellular protein extracts were prepared by scraping the cells into modified RIPA buffer (50 mM Tris HCl (pH 7.4), 150 mM NaCl, 0.25% Sodium deoxycholate, 1% Igepal, protease inhibitors 1 mM EDTA, 1× Pefabloc, 1× protease inhibitor cocktail, 1 mM Na3VO4, 1 mM NaF). All protein samples were separated by SDS-PAGE (10/12%) and electrophoretically transferred onto nitrocellulose membrane. All primary antibodies were incubated overnight at 4° C.: anti-phospho mTOR (Ser 2448) and anti-p70^S6K (Thr 389) (Cell Signaling Technologies, UK), anti-Beclin-1 (BD Biosciences, UK) and anti-LC3 (Medical & Biological Laboratories, Japan). The membranes were incubated with the relevant horseradish peroxidase conjugated secondary antibodies (DakoCytomation, Dublin) and detected by chemiluminescence (ECL Amersham, UK).
(§5) To visualize and quantify the formation of autophagic vesicles, the green fluorescent protein (GFP)-LC3 (pEGFP-LC3) expression vector, kindly supplied by Dr. T. Yoshimori (National Institute of Genetics, Japan) was used. Cells were transiently transfected with the Amaxa electroporation system according to the supplier's protocol. Twenty-four hours post transfection, cells were treated with 5-FU and/or Cisplatin, fixed in 4% paraformaldehyde in PBS and transferred onto slides using a non-fluorescent fixative for analysis by fluorescence microscopy. Alternatively, Western Blot analysis was used to assess the expression and processing of LC3. […] The membrane sequestered, lipid-conjugated form of LC3-II remains with the autophagosome membrane after the vesicle has formed, and levels of both isoform are detected by Western Blot. Transfection efficiency was consistent for a given cell line, OE33 and KYSE450 cell lines (˜60-70%) compared to OE19 and OE21 cell lines (˜30%).

For data set [6], the system named is LC3 in KYSE450 cells. Described as above. In kind it is cell-based, human. Particulars: 10 nM, 24 and 48 hours post treatment. As to the method: as §4, §5
The subject of data set [7] is LC3 in OE19 cells. Described as above. Format: cell-based, human. The settings on record: 10 nM bafilomycinA1, 24 and 48 hours. As to the method: as §4, §5

Take `Cn1cnc(N)c2ncnc1-2` [3-MA, 3-Methyladenine]: the morphology entry in data set [1] (3-MA without and with 5-FU (30 μM), 48 hours) is “did not significantly affect morphology”; in data set [2] (3-MA (10.0 μM) without and with 5-FU (50 μM), 48 hours) it was “did not significantly affect morphology”.

As to `CO/C1=C\C(C)=C\[C@@H](C)[C@@H](O)[C@@H](C)C/C(C)=C/C=C/[C@H](OC)[C@@H]([C@@H](C)[C@@H](O)[C@H](C)[C@@]2(O)C[C@@H](O)[C@H](C)[C@@H](C(C)C)O2)OC1=O` [Bafilomycin, Bafilomycin A1], the “cell death (MTT)” value in data set [3] is reported as “induced significant cell death”. Further, the morphology result in data set [1] (Bafilomycin 1.0 nM alone or with 5-FU (30 μM)) and in data set [2] (Bafilomycin 10.0 nM alone or with 5-FU (50 μM)) was “significant levels of vesicular accumulation” in each case. The “cytotoxicity (MTT)” value in data set [4] (Bafilomycin 100 nM) is on record as “cytotoxic alone”. Besides, the “viability (MTT)” value in data set [4] (Bafilomycin 10-100 nM) is reported as “reduction in MTT”. For the same molecule, the “levels of endogenous LC3 (Western blot)” value in data set [5] and in data set [6] was “induced an accumulation in the levels of endogenous LC3” throughout. The “GFP-LC3 distribution (fluorescence microscopy)” value in data set [7] is on record as “accumulation of GFP-LC3 tagged autophagosomes”.

Regarding `CCOC(=O)C1=C(N)Oc2ccc(Br)cc2C1C(C#N)C(=O)OCC` (centres unmarked) [HA14-1], the morphology result was “rarely causes apoptosis” in data set [2] (HA14-1 (5 μM) and/or 5-FU (50 μM), 24 hours); “the induction of apoptosis is observed, but at very low levels” in data set [2] (HA14-1 (5 μM) and/or 5-FU (50 μM), 24 hours, listed as HA14-I); “the induction of apoptosis is apparent, but again at low levels” in data set [2] (HA14-1 (10 μM) without and with 5-FU (50 μM), 24 hours); “rarely causes apoptosis” in data set [2] (HA14-1 (20 μM), 24 hours); “the induction of apoptosis is apparent, but again at low levels” in data set [2] (HA14-1 (20 μM), 24 hours, listed as HA14-I); “apoptotic cells are visible” in data set [2] (HA14-1 (30 μM), 24 hours). Besides, the morphology result in data set [2] (HA14-1 (30 μM), 24 hours, listed as HA14-I) is “induced clear levels of apoptotic cell death”; in data set [2] (HA14-1 (30 μM), 48 hours), “apoptotic cells are visible”; in data set [2] (HA14-1 (30 μM), 48 hours, listed as HA14-I), “induced clear levels of apoptotic cell death”.

`COC(=O)C[C@H](NC(=O)[C@H](C)NC(=O)[C@@H](NC(=O)OCc1ccccc1)C(C)C)C(=O)CF` [zVAD-fmk] (Cbz-Val-Ala-Asp(OMe)-CH2F): the “inhibition of apoptosis induced by 5-FU” value in data set [1] (zVAD-fmk (25 μM) for 2 hours prior to 5-FU treatment) is recorded as “completely inhibited”.
